According to US20250250559A1, “METHOD TO ANALYZE AND OPTIMIZE GENE EDITING MODULES AND DELIVERY APPROACHES” (Hoffmann-La Roche Inc., priority 2016, published 2025):
Several values for one entry are separate records, joined by “and”; a condition that tells them apart may be missing. Equal values may be shown once.

Assays:
Assay type in all cases: cell-based, human
DPH1 gene [1] = experiment: DT + PM double resistant colony count after DPH1 gene editing (integration with inactivation); conditions: DPH1 (gRNA length), TF eff. = 31%; for # of DT + PM resistant colonies (40,000 seeded cells): MCF7, individual samples A-D
Protocol: MCF7 cells (Brooks, et al. 1973) were originally obtained from ATCC (subsequently propagated in an in-house cell bank) and maintained in RPMI 1641 medium supplemented with 10% FCS, 2 mM L-Glutamine and penicillin/streptomycin at 37° C. and 85% humidity. For transfection of plasmids harboring gene-editing modules, 3,000,000 cells were seeded in a 10 cm diameter culture dish and cultivated at 37° C. and humidified 5% CO2. 24 h after seeding, cells were transfected with 20 μg total DNA using JetPEI (Polyplus) according to the manufacturer's protocol but with an N/P ratio of 6:1. Transfection efficiency was determined after 24 h by flow cytometry (FACS Calibur, BD biosciences) of cells that were transfected with a modified eGFP expression plasmid (Zhang, et al. 1996).
CRISPR/Cas module for targeted integration contains a puromycin (PM) resistance gene expression cassette without promoter to avoid transient expression. Thus, detection of integration of recombinant sequences into the genome was detected by determining sensitivity of cells towards PM. A concentration of 500 ng/μL PM (which quantitatively eliminates wildtype MCF7 cells) was applied to select MCF7 cells with stably integrated expression cassettes. PM-resistant colonies selected with the same procedure as described above for the DT selection and visualized and quantified (between 12 and 14 days after start of selection) in the same manner as described above for toxin resistant colonies. Number of PM resistant colonies obtained with non-target guide sequences (scrambled gRNA, FIG. 1) reflect the nonspecific integration background. Increase in colonies (above nonspecific background) obtained with target-gene gRNAs which are PM-resistant but toxin sensitive reflect integration into just one target allele, leaving the other dph1 or dph2 allele unaffected. PM resistant colonies that are also DT resistant have the expression cassette integrated into at least target allele and the other allele either inactivated or inactivated accompanied by yet another integration event.

DPH1 gene [2] = experiment: DT resistant colony count after DPH1 gene editing (homozygous gene inactivation); conditions: for # of DT resistant colonies (20,000 seeded cells) / # of DT resistant colonies (20,000 seeded cells) (unheaded second sub-column: mean): DPH1 (gRNA length), TF eff. = 31%; for # of DT resistant colonies (20,000 seeded cells): MCF7, individual samples A-D
Protocol: (§1) MCF7 cells (Brooks, et al. 1973) were originally obtained from ATCC (subsequently propagated in an in-house cell bank) and maintained in RPMI […] medium supplemented with 10% FCS, 2 mM L-Glutamine and penicillin/streptomycin at 37° C. and 85% humidity. For transfection of plasmids harboring gene-editing modules, 3,000,000 cells were seeded in a 10 cm diameter culture dish and cultivated at 37° C. and humidified 5% CO2. 24 h after seeding, cells were transfected with 20 μg total DNA using JetPEI (Polyplus) according to the manufacturer's protocol but with an N/P ratio of 6:1. Transfection efficiency was determined after 24 h by flow cytometry (FACS Calibur, BD biosciences) of cells that were transfected with a modified eGFP expression plasmid (Zhang, et al. 1996).
(§2) Plasmids encoding CRISPR/Cas9 gene-editing entities (i.e. knock-out and integration systems) against Dph1 (gRNA target sequence: […] (SEQ ID NO: 01) derived from RefSeq: NM_001383) and Dph2 (gRNA target sequence: […] (SEQ ID NO: 02) derived from RefSeq: NM_001039589, NM_001384), and scrambled control (gRNA sequence: […] (SEQ ID NO: 03)) were obtained from OriGene. This system comprises one plasmid expressing a ˜100 nt gRNA under control of a U6 promoter as well as Cas9 nuclease under control of a CMV promoter and a Donor plasmid with a promoter-less GFP/PM expression cassette flanked by homologous arms to the target gene (Dph1 or Dph2). Additional Dph1 gRNA sequence variants of different sizes (OriGene) […]
(§3) MCF7 cells which have all chromosomal copies of DPH1 or DPH2 inactivated are resistant to diphtheria toxin (Stahl, et al. 2015). Thus, occurrence and frequency of toxin resistant cells/colonies upon CRISPR/Cas inflicted gene inactivation provides a measure for efficiency of inactivation of all gene copies. Therefore, MCF/cells were transfected as described in Example 1 with (i) a GFP expression plasmid as transfection control, (ii) the CRISPR/Cas9 Dph1 or Dph2 knock-out/integration system and (iii) knock-out/integration entities containing a scrambled gRNA to determine Cas9 independent integration frequencies. After determination of transfection efficiency, cells were seeded in 6-well plates. For quantification of homozygous knock-out events by DT 20000 cells were seeded and for quantification of integration events by PM or both events 40000 cells were seeded. RPMI medium was exchanged by RPMI medium containing DT or PM or both toxins 3 days after cell seeding. Exchange of medium was repeated every 2-3 days until all dead cells were removed from the plates and actively growing colonies could be detected via microscopic inspection. Thereafter (between day 12 and day 14 after start of toxin exposure), cells were washed 3 times with PBS and subsequently stained with ice cold methylene blue (0.2% in 50% EtOH). Methylene blue solution was subsequently removed and the plates were carefully washed under running water. Finally, cell colonies were counted under the microscope with a 5 mm grid foil.
MCF7 cells which have all chromosomal copies of DPH1 inactivated are DT resistant. Thus, occurrence and frequency of DTr colonies upon ZFN inflicted gene inactivation and/or cassette integration provides a measure for efficacy of inactivation of all gene copies. The ZFN recognition sequence ([…], cleavage site, SEQ ID NO: 10) are derived from NM_001383.3 (DPH1-wt) and were obtained from Sigma Aldrich. A PAC integration cassette for this position was obtained from OriGene. MCF7 cells were transfected as described above with (i) a GFP expression plasmid, (ii) the plasmid encoding DPH1-targeting ZFN and (iii) the DPH1-targeting PAC-integration cassette. After determination of transfection efficiency, cells were seeded in 6-well plates. For quantification of homozygous knock-out events (DTr) 20,000 cells were seeded, 40,000 cells for quantification of integration events (PMr) or double resistances. […]

DPH1 gene [3] = experiment: PM resistant colony count after DPH1 gene editing (PAC cassette integration); conditions: for # of PM resistant colonies (40,000 seeded cells) / # of PM resistant colonies (40,000 seeded cells) (unheaded second sub-column: mean): DPH1 (gRNA length), TF eff. = 31%; for # of PM resistant colonies (40,000 seeded cells): MCF7, individual samples A-D; for integration efficacy in dependence on gRNA length: PMr colonies
Protocol: as §1, §2
as §3, with “For quantification of homozygous knock-out events by DT 20000 cells were seeded and for quantification of integration events by PM or both events 40000 cells were seeded.” left out
CRISPR/Cas module for targeted integration contains a puromycin (PM) resistance gene expression cassette without promoter to avoid transient expression. Thus, detection of integration of recombinant sequences into the genome was detected by determining sensitivity of cells towards PM. A concentration of […] PM (which quantitatively eliminates wildtype MCF7 cells) was applied to select MCF7 cells with stably integrated expression cassettes. PM-resistant colonies selected with the same procedure as described above for the DT selection and visualized and quantified (between 12 and 14 days after start of selection) in the same manner as described above for toxin resistant colonies. Number of PM resistant colonies obtained with non-target guide sequences (scrambled gRNA, FIG. 1) reflect the nonspecific integration background. Increase in colonies (above nonspecific background) obtained with target-gene gRNAs which are PM-resistant but toxin sensitive reflect integration into just one target allele, leaving the other dph1 or dph2 allele unaffected. […]

[4] = listed as 16 mer Dph1 CRISPR Cas9 gRNA
[5] = listed as 18 mer Dph1 CRISPR Cas9 gRNA
[6] = listed as 22 mer Dph1 CRISPR Cas9 gRNA
[7] = listed as 24 mer Dph1 CRISPR Cas9 gRNA

## 14 mer SpCa9 Dph1 gRNA: Dph1 gRNA sequence variant GGCCGAGACGGCCC with SpCas9 (listed as DNA, chemistry not given here)
DPH1 gene [1]
  # of DT + PM resistant colonies (40,000 seeded cells): 0
  # of DT + PM resistant colonies (40,000 seeded cells) (unheaded second sub-column: mean): 0
DPH1 gene [2]
  # of DT resistant colonies (20,000 seeded cells): 0
  # of DT resistant colonies (20,000 seeded cells) (unheaded second sub-column: mean): 0
DPH1 gene [2]; DTr colonies
  DPH1 inactivation efficacy in dependence on gRNA length: below detection levels
DPH1 gene [3]
  # of PM resistant colonies (40,000 seeded cells): 6 and 10 and 8 and 9
  # of PM resistant colonies (40,000 seeded cells) (unheaded second sub-column: mean): 8
  integration efficacy in dependence on gRNA length: not exceeding scrambled control background levels
DPH1 gene [3]; listed as 14 mer Dph1 CRISPR Cas9 gRNA
  # of PM resistant colonies (40,000 seeded cells): 6 and 10 and 8 and 9

## 16 mer SpCas9 Dph1 gRNA: Dph1 gRNA sequence variant GCGGCCGAGACGGCCC with SpCas9 (chemistry not given here)
DPH1 gene [1]
  # of DT + PM resistant colonies (40,000 seeded cells): 7 and 9 (2×) and 10
  # of DT + PM resistant colonies (40,000 seeded cells) (unheaded second sub-column: mean): 8
DPH1 gene [1]; [4]
  # of DT + PM resistant colonies (40,000 seeded cells): 7 and 9 (2×) and 10
DPH1 gene [2]
  # of DT resistant colonies (20,000 seeded cells): 275 and 298 and 292 and 271
  # of DT resistant colonies (20,000 seeded cells) (unheaded second sub-column: mean): 284
DPH1 gene [2]; [4]
  # of DT resistant colonies (20,000 seeded cells): 275 and 298 and 292 and 271
DPH1 gene [3]
  # of PM resistant colonies (40,000 seeded cells): 21 and 26 (2×) and 25
  # of PM resistant colonies (40,000 seeded cells) (unheaded second sub-column: mean): 25
  integration efficacy in dependence on gRNA length: Targeted integration clearly above background was observed
DPH1 gene [3]; [4]
  # of PM resistant colonies (40,000 seeded cells): 21 and 26 (2×) and 25

## 18 mer SpCas9 Dph1 gRNA: Dph1 gRNA sequence variant GGGCGGCCGAGACGGCCC with SpCas9 (chemistry not given here)
DPH1 gene [1]
  # of DT + PM resistant colonies (40,000 seeded cells): 10 and 12 and 7 and 11
  # of DT + PM resistant colonies (40,000 seeded cells) (unheaded second sub-column: mean): 10
DPH1 gene [1]; [5]
  # of DT + PM resistant colonies (40,000 seeded cells): 10 and 12 and 7 and 11
DPH1 gene [2]
  # of DT resistant colonies (20,000 seeded cells): 284 and 299 and 321 and 324
  # of DT resistant colonies (20,000 seeded cells) (unheaded second sub-column: mean): 307
DPH1 gene [2]; [5]
  # of DT resistant colonies (20,000 seeded cells): 284 and 299 and 321 and 324
DPH1 gene [3]
  # of PM resistant colonies (40,000 seeded cells): 19 and 25 and 27 and 22
  # of PM resistant colonies (40,000 seeded cells) (unheaded second sub-column: mean): 23
  integration efficacy in dependence on gRNA length: Targeted integration clearly above background was observed
DPH1 gene [3]; [5]
  # of PM resistant colonies (40,000 seeded cells): 19 and 25 and 27 and 22

## 22 mer SpCas9 Dph1 gRNA: Dph1 gRNA sequence variant AGCAGGGCGGCCGAGACGGCCC with SpCas9 (chemistry not given here)
DPH1 gene [1]
  # of DT + PM resistant colonies (40,000 seeded cells): 6 and 5 (2×) and 4
  # of DT + PM resistant colonies (40,000 seeded cells) (unheaded second sub-column: mean): 5
DPH1 gene [1]; [6]
  # of DT + PM resistant colonies (40,000 seeded cells): 6 and 5 (2×) and 4
DPH1 gene [2]
  # of DT resistant colonies (20,000 seeded cells): 278 and 292 and 297 and 267
  # of DT resistant colonies (20,000 seeded cells) (unheaded second sub-column: mean): 284
DPH1 gene [2]; [6]
  # of DT resistant colonies (20,000 seeded cells): 278 and 292 and 297 and 267
DPH1 gene [3]
  # of PM resistant colonies (40,000 seeded cells): 14 and 12 and 11 and 15
  # of PM resistant colonies (40,000 seeded cells) (unheaded second sub-column: mean): 13
  integration efficacy in dependence on gRNA length: Targeted integration clearly above background was observed
DPH1 gene [3]; [6]
  # of PM resistant colonies (40,000 seeded cells): 14 and 12 and 11 and 15

## 24 mer SpCas9 Dph1 gRNA: Dph1 gRNA sequence variant GGAGCAGGGCGGCCGAGACGGCCC with SpCas9 (chemistry not given here)
DPH1 gene [1]
  # of DT + PM resistant colonies (40,000 seeded cells): 2 and 4 and 3 (2×)
  # of DT + PM resistant colonies (40,000 seeded cells) (unheaded second sub-column: mean): 3
DPH1 gene [1]; [7]
  # of DT + PM resistant colonies (40,000 seeded cells): 2 and 4 and 3 (2×)
DPH1 gene [2]
  # of DT resistant colonies (20,000 seeded cells): 237 and 252 and 228 and 211
  # of DT resistant colonies (20,000 seeded cells) (unheaded second sub-column: mean): 232
DPH1 gene [2]; [7]
  # of DT resistant colonies (20,000 seeded cells): 237 and 252 and 228 and 211
DPH1 gene [3]
  # of PM resistant colonies (40,000 seeded cells): 13 and 12 and 11 and 15
  # of PM resistant colonies (40,000 seeded cells) (unheaded second sub-column: mean): 13
  integration efficacy in dependence on gRNA length: Targeted integration clearly above background was observed
DPH1 gene [3]; [7]
  # of PM resistant colonies (40,000 seeded cells): 13 and 12 and 11 and 15
